# “Also recorded” adds a separate entry of the source. Counter-ions that a name gives are not always drawn.
# What was measured:
# [1] = test system: TLR4 ligand LPS induced TNF; test: LPS induced TNF production in primary human macrophages (ELISA); type: cell-based; conditions: 30 minutes preincubation
# Protocol: (§1) Macrophages or RA synovial membrane cell cultures were stimulated with 10 ng/ml chloroform-extracted LPS, 10 ng/ml Pam3, 10 ng/ml Flagellin, 10 ng/ml Malp-2, 20 μg/ml poly IC, 2 μM CpG (human/mouse) or 1 μg/ml R-848 in complete media for 6 h. Supernatants from RA cultures were harvested after 24 hours. All reagents other than LPS were free from LPS contamination as assessed using the limulus amebocyte lysate (LAL) assay from Cambrex (USA).
# (§2) Sandwich ELISAs were employed to measure TNF, (Pharmingen, UK). IP-10 (R&D, USA) and IL-1β (Bioscource. USA). Absorbance was read on a spectrophotometric ELISA plate reader (Labsystems Multiscan Biochromic) and analyzed using Ascent software V2.6 (Thermo Labsystems, Cambridge, United Kingdom). All results are expressed as the mean cytokine concentration±SD obtained from triplicate cultures per condition.
# (§3) RA synovial membrane cells were isolated from patients undergoing joint replacement surgery as previously described (Foxwell et al., Proc. Natl. Acad. Sci. USA 95, 8211-8215, 1998). All patients gave written informed consent and the study was approved by the local ethics committee. Immediately after isolation, cells were used for mRNA analysis, stained by FACS or cultured at 1×10^5 cells/well in 96-well tissue culture plates (Falcon, UK) in RPMI 1640 containing 10% (v/v) FBS and 100 U/ml penicillin/streptomycin. Primary human synovial fibroblasts were cultured as described previously (Butler et al. Eur. Cytokine Netw. 5:441-8, 1994). Peripheral blood monocytes were isolated and cultured as previously described (Foxwell et al. Proc. Natl. Acad. Sci. USA 95, 8211-8215, 1998). Macrophages were derived from monocytes after differentiation for 4 days with 100 ng/ml M-CSF (PeproTech, UK). The mouse macrophage cell line RAW 264.7 was maintained in Dulbecco's modified Eagle's medium supplemented with 10% fetal bovine serum.
# Primary human macrophages, murine RAW 264.7 cells and synovial fibroblasts were incubated with 30 μg/ml mianserine hydrochloride for 30 minutes and then stimulated for 6 hours with TLR ligands (R-848, Pam3, LPS, flagellin, malp-2, poly IC or CpG).
# [2] = test system: TLR3 ligand poly IC induced IP-10; test: Poly IC induced IP-10 production in human macrophages (ELISA); type: cell-based
# Protocol: as §1, §2, §3
# Primary human macrophages were incubated with 5 μg/ml of GBR12909, 5 μg/ml of clotrimazole, 5 μg/ml of Propidium iodide (PI), 30 μg/ml mianserine hydrochloride and 30 μg/ml promazine hydrochloride for 30 minutes and then stimulated for 6 hours with the TLR4 ligand LPS (FIG. 7A), with R848 a TLR7/8 ligand (FIG. 7, Graph B), or with poly IC a TLR3 ligand (FIG. 7C). Supernatants were collected and measured for TNF or IP-10.
# [3] = test system: RA synovial membrane cultures; test: Spontaneous cytokine release from RA synovial membrane cultures (ELISA); type: cell-based, human
# [4] = test system: TLR7/8 ligand R-848 induced TNF; test: R-848 induced TNF production in primary human macrophages (ELISA); conditions: 1 μg/ml R-848 for 6 hours
# [5] = test system: rheumatoid synovial membrane cultures; test: TNF production in rheumatoid synovial membrane cultures stimulated with TLR ligands (ELISA); type: cell-based, human
# Protocol: as §1, §2, §3
# To check if these TLRs were functional in synovial membrane cultures, cells were stimulated with the appropriate TLR ligands at the time of seeding the cells (FIG. 5, Graph C). […]
# [6] = test system: RA synovial membrane cultures; test: Spontaneous cytokine release from RA synovial membrane cultures (ELISA); type: cell-based, human; conditions: 10 μg/ml, 20 μg/ml and 30 μg/ml
# Protocol: Macrophages or RA synovial membrane cell cultures were stimulated with 10 ng/ml chloroform-extracted LPS, 10 ng/ml Pam3, 10 ng/ml Flagellin, 10 ng/ml Malp-2, 20 μg/ml poly IC, 2 μM CpG (human/mouse) or 1 μg/ml R-848 in complete media for 6 h. Supernatants from RA cultures were harvested after 24 hours.
# as §2, §3
# Rheumatoid arthritis synovial membrane cells were cultured for 24 hours in the presence of media alone or media containing 30 μg/ml mianserine hydrochloride. Supernatants were harvested and levels of cytokines (A) TNF (n=16) were measured by ELISA. […] A students paired t-test was used to analyse the data.
# [7] = 5 μg/ml, 30 minutes preincubation
# [8] = 30 μg/ml, 10 ng/ml LPS for 6 hours
# [9] = dose dependant, best inhibition at 100 μM, 24 hours, n=4
molecule,measurement,setting,value
CC[N+](C)(CC)CCC[n+]1c(-c2ccccc2)c2cc(N)ccc2c2ccc(N)cc21.[I-].[I-] [Propidium iodide],inhibition of LPS induced TNF production,"[1]; 5 μg/ml, LPS for 6 hours",None of the drugs tested were able to inhibit
same,inhibition of Poly IC induced IP-10 production,"[2]; 5 μg/ml, poly IC for 6 hours",able to inhibit
same,inhibition of spontaneous TNF production,"[3]; 5 μg/ml, 24 hours",did not lead to a significant decrease
same,inhibition of R-848 induced TNF production,[4]; [7],only the serotonin receptor antagonists (mianserine hydrochloride and promazine hydrochloride) were able to suppress
"CCOCc1nc2c(N)nc3ccccc3c2n1CC(C)(C)O [R-848, resiquimod]",TNF production increased on stimulation,"[5]; 1 μg/ml, TLR7/8 ligand, P<0.0001, n=11",515%±76
"Clc1ccccc1C(c1ccccc1)(c1ccccc1)n1ccnc1 [clotrimazole, Clotrimazole]",inhibition of LPS induced TNF production,"[1]; 5 μg/ml, LPS for 6 hours",None of the drugs tested were able to inhibit
same,inhibition of Poly IC induced IP-10 production,"[2]; 5 μg/ml, poly IC for 6 hours",able to inhibit
same,inhibition of spontaneous TNF production,"[3]; 5 μg/ml, 24 hours",did not lead to a significant decrease
same,inhibition of R-848 induced TNF production,[4]; [7],only the serotonin receptor antagonists (mianserine hydrochloride and promazine hydrochloride) were able to suppress
CC(C)Cn1cnc2c(N)nc3ccccc3c21 [imiquimod],stimulation of cytokine release over spontaneous levels,"[5]; 1 μg/ml, TLR7 ligand",unable to stimulate further release of cytokines
CN1C[C@H](CNC(=O)OCc2ccccc2)C[C@@H]2c3cccc4c3c(cn4C)C[C@H]21 [metergoline],inhibition of spontaneous TNF production,"[3]; 10 μg/ml, 24 hours",able to inhibit
same,inhibition of R-848 induced TNF production,"[4]; 10 μg/ml, 30 minutes preincubation",able to inhibit
CSc1ccc2c(c1)C(N1CCN(C)CC1)Cc1ccccc1S2 (stereo not shown) [methiothepin],inhibition of spontaneous TNF production,"[3]; 5 μg/ml, 24 hours",able to inhibit
same,inhibition of R-848 induced TNF production,[4]; [7],able to inhibit
Cc1nccn1CC1CCc2c(c3ccccc3n2C)C1=O (stereo not shown) [ondansetron],inhibition of LPS induced TNF production,[1]; [8],not
same,inhibition of spontaneous TNF production,"[3]; 20 μg/ml, 24 hours",able to inhibit; also recorded: significant inhibition
same,inhibition of R-848 induced TNF production,"[4]; 30 μg/ml, 30 minutes preincubation",significantly inhibits
same,inhibition of R-848 induced TNF production,"[4]; 30 μg/ml, 30 minutes preincubation, listed as Ondansetron",able to inhibit
same,"inhibition of R-848 induced TNF production, dose dependence","[4]; 5, 10 or 20 μg/ml, 30 minutes preincubation",dose dependant inhibition
CN(C)CCCN1c2ccccc2Sc2ccccc21 [promazine hydrochloride],"inhibition of TNF, dose dependence",[6],dose dependently inhibited
same,inhibition of LPS induced TNF production,[1]; [8],None of the drugs tested were able to inhibit
same,inhibition of Poly IC induced IP-10 production,"[2]; 30 μg/ml, 20 μg/ml poly IC for 6 hours, hydrochloride",inhibits TLR3 induced signalling; also recorded: able to inhibit
same,inhibition of R-848 induced TNF production,"[4]; 30 μg/ml, 30 minutes preincubation, hydrochloride",able to suppress
same,inhibition of R-848 induced TNF production,"[4]; 30 μg/ml, 30 minutes preincubation, listed as Promazine hydrochloride, hydrochloride",decreased TNF production
Cc1nc2sccn2c(=O)c1CCN1CCC(=C(c2ccc(F)cc2)c2ccc(F)cc2)CC1 [ritanserin],inhibition of spontaneous TNF production,"[3]; 5 μg/ml, 24 hours",able to inhibit
same,inhibition of R-848 induced TNF production,[4]; [7],able to inhibit
"NCCc1c[nH]c2ccc(O)cc12 [serotonin (5-HT), 5-hydroxytryptamine]",inhibition of R-848 induced TNF production (TLR8 signaling),"[4]; 10 or 100 μM, 30 minute preincubation",not inhibited
Chloroquine diphosphate salt,inhibition of spontaneous IL-1 release,[3]; [9],inhibited
same,inhibition of spontaneous TNF release,[3]; [9],inhibited
Poly IC,TNF production increased on stimulation,"[5]; 20 μg/ml, TLR3 ligand, P=0.0002, n=12",334%±60
ketanserine tartrate,"inhibition of TNF, dose dependence","[3]; 10 μM, 100 μM",dose dependently inhibited
